Results from PubChem BioAssay (NCI).
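Briefly, cells in 96-well plates were exposed to five compound concentrations for 48 h, and endpoints were estimated by linear interpolation. TGI: concentration producing complete growth inhibition.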

Tests used:
Experiment in all cases: inhibition of tumour cell growth, NCI panel, 48 h
[1] = test system: NCI-H226 lung
[2] = test system: HT29 colon
[3] = test system: HOP-92 NSCLC
[4] = test system: KM12 colon
[5] = test system: M19-MEL melanoma
[6] = test system: SNB-19 CNS
[7] = test system: NCI-H23 lung
[8] = test system: OVCAR-8 ovarian
[9] = test system: M14 melanoma
[10] = test system: SNB-78 CNS
[11] = test system: MOLT-4 leukemia
[12] = test system: HCT-116 colon
[13] = test system: HCC-2998 colon
[14] = test system: A549 NSCLC
[15] = test system: OVCAR-5 ovarian
[16] = test system: CCRF-CEM leukemia
[17] = test system: RXF 393 renal
[18] = test system: COLO 205 colon
[19] = test system: IGROV1 ovarian
[20] = test system: HOP-18 NSCLC
[21] = test system: OVCAR-3 ovarian
[22] = test system: HL-60(TB) leukemia
[23] = test system: SK-MEL-28 melanoma
[24] = test system: 786-0 renal
[25] = test system: RPMI-8226 leukemia
[26] = test system: SK-MEL-5 melanoma
[27] = test system: U251 CNS
[28] = test system: HCT-15 colon
[29] = test system: LOX IMVI melanoma
[30] = test system: SN12C renal
[31] = test system: NCI-H522 lung
[32] = test system: UACC-257 melanoma
[33] = test system: KM20L2 colon
[34] = test system: TK-10 renal
[35] = test system: K-562 leukemia
[36] = test system: DMS 273 small cell lung
[37] = test system: OVCAR-4 ovarian
[38] = test system: SW-620 colon
[39] = test system: SF-539 CNS
[40] = test system: SF-268 CNS
[41] = test system: EKVX NSCLC
[42] = test system: NCI-H460 lung
[43] = test system: SK-MEL-2 melanoma
[44] = test system: MALME-3M melanoma
[45] = test system: CAKI-1 renal
[46] = test system: ACHN renal
[47] = test system: SNB-75 CNS
[48] = test system: SK-OV-3 ovarian
[49] = test system: SF-295 CNS
[50] = test system: UACC-62 melanoma
[51] = test system: HOP-62 NSCLC
[52] = test system: LXFL 529 NSCLC
[53] = test system: DMS 114 small cell lung
[54] = test system: A498 renal
[55] = test system: SR leukemia
[56] = test system: XF 498 CNS
[57] = test system: DLD-1 colon
[58] = test system: UO-31 renal
[59] = test system: RXF-631 renal

SMILES: C=C(CCCCC)CN1CCCC1C(C)=O (stereo not drawn)
- TGI [1]: 68.9 µM
- TGI [2]: > 100 µM
- TGI [3]: 63.8 µM
- TGI [4]: > 100 µM
- TGI [5]: > 100 µM
- TGI [6]: > 100 µM
- TGI [7]: 65.1 µM
- TGI [8]: > 95.1 µM
- TGI [9]: > 100 µM
- TGI [10]: > 76.6 µM
- TGI [11]: 33 µM
- TGI [12]: > 80.9 µM
- TGI [13]: > 100 µM
- TGI [14]: > 100 µM
- TGI [15]: > 96.1 µM
- TGI [16]: 41.2 µM
- TGI [17]: > 95.7 µM
- TGI [18]: 32.4 µM
- TGI [19]: > 100 µM
- TGI [20]: > 94.8 µM
- TGI [21]: > 100 µM
- TGI [22]: 19.7 µM
- TGI [23]: > 100 µM
- TGI [24]: > 100 µM
- TGI [25]: 40 µM
- TGI [26]: 33.2 µM
- TGI [27]: > 100 µM
- TGI [28]: > 100 µM
- TGI [29]: 65.3 µM
- TGI [30]: 98.6 µM
- TGI [31]: 34.7 µM
- TGI [32]: > 73.3 µM
- TGI [33]: > 100 µM
- TGI [34]: > 100 µM
- TGI [35]: 51.5 µM
- TGI [36]: 53.1 µM
- TGI [37]: 99.3 µM
- TGI [38]: > 100 µM
- TGI [39]: > 100 µM
- TGI [40]: > 100 µM
- TGI [41]: > 100 µM
- TGI [42]: > 85.3 µM
- TGI [43]: > 74.7 µM
- TGI [44]: > 100 µM
- TGI [45]: > 92.3 µM
- TGI [46]: > 85.4 µM
- TGI [47]: 78.7 µM
- TGI [48]: > 100 µM
- TGI [49]: > 94.7 µM
- TGI [50]: > 100 µM
- TGI [51]: 64.1 µM
- TGI [52]: > 100 µM
- TGI [53]: 42.8 µM
- TGI [54]: > 93.5 µM
- TGI [55]: 40.1 µM
- TGI [56]: 41.7 µM
- TGI [57]: > 100 µM
- TGI [58]: > 100 µM

SMILES: CC1(C)OC2C(CCP(=O)(O)O)OC(c3nc(C(N)=O)cs3)C2O1 (stereo not drawn)
- TGI [1]: > 100 µM
- TGI [2]: > 100 µM
- TGI [3]: > 100 µM
- TGI [4]: > 100 µM
- TGI [5]: > 100 µM
- TGI [6]: > 100 µM
- TGI [7]: > 100 µM
- TGI [8]: > 100 µM
- TGI [9]: > 100 µM
- TGI [11]: > 100 µM
- TGI [12]: > 100 µM
- TGI [13]: > 100 µM
- TGI [14]: > 100 µM
- TGI [15]: > 100 µM
- TGI [16]: > 100 µM
- TGI [17]: > 100 µM
- TGI [18]: > 100 µM
- TGI [19]: > 100 µM
- TGI [20]: > 100 µM
- TGI [23]: > 100 µM
- TGI [24]: > 100 µM
- TGI [25]: > 100 µM
- TGI [27]: > 100 µM
- TGI [28]: > 100 µM
- TGI [29]: > 100 µM
- TGI [30]: > 100 µM
- TGI [31]: > 100 µM
- TGI [32]: > 100 µM
- TGI [33]: > 100 µM
- TGI [34]: > 100 µM
- TGI [35]: > 100 µM
- TGI [36]: > 100 µM
- TGI [37]: > 100 µM
- TGI [38]: > 100 µM
- TGI [40]: > 100 µM
- TGI [41]: > 100 µM
- TGI [42]: > 100 µM
- TGI [43]: > 100 µM
- TGI [44]: > 100 µM
- TGI [45]: > 100 µM
- TGI [46]: > 100 µM
- TGI [47]: > 100 µM
- TGI [48]: > 100 µM
- TGI [59]: > 100 µM
- TGI [50]: > 100 µM
- TGI [52]: > 100 µM
- TGI [53]: > 100 µM
- TGI [54]: > 100 µM
- TGI [57]: > 100 µM
- TGI [58]: > 100 µM
